From patent US9738634B2, “Heterocyclic amide compound and herbicide” (SYNGENTA PARTICIPATIONS AG, priority 2013, dated 2017)

Key:
Assay type in all cases: in vivo
barnyard grass [1] = experiment: Test Example 1: weedkilling efficacy, preemergent weed treatment in the submerged state; A: barnyard grass
Summary of the method: (§1)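 Alluvial soil in Wagner pots flooded to 4 cm; barnyard grass, bulrush and oval-leafed pondweed seeds sown, then 2.5-leaf rice seedlings transplanted. Same day, emulsified compound diluted in water to set g/ha dosages and applied to water surface; greenhouse 25–30 °C, effect scored by criteria after 3 weeks.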

bulrush [2] = experiment: Test Example 1: weedkilling efficacy, preemergent weed treatment in the submerged state; B: bulrush
Summary of the method: as §1

barnyard grass [3] = experiment: Test Example 2: weedkilling efficacy, growth period weed treatment in the submerged state; A: barnyard grass
Summary of the method: (§2)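 First, alluvial soil in pots is flooded to 4 cm and mixed seed is sown. Next, plants grow in a greenhouse at 25 to 30° C until the 1-2 leaf stage. Then diluted emulsion is applied onto the water surface at the given g/ha rate, and injury is assessed after 3 weeks.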

bulrush [4] = experiment: Test Example 2: weedkilling efficacy, growth period weed treatment in the submerged state; B: bulrush
Summary of the method: as §2

oval-leafed pondweed [5] = experiment: Test Example 2: weedkilling efficacy, growth period weed treatment in the submerged state; C: oval-leafed pondweed
Summary of the method: as §2

transplanted rice = experiment: Test Example 1: preemergent weed treatment in the submerged state, effect on crop; a: transplanted rice
Summary of the method: as §1

oval-leafed pondweed [6] = experiment: Test Example 1: weedkilling efficacy, preemergent weed treatment in the submerged state; C: oval-leafed pondweed
Summary of the method: as §1

SMILES | A: barnyard grass, weed kill grade (barnyard grass [1]; treatment dosage 320 g/ha) | B: bulrush, weed kill grade (bulrush [2]; treatment dosage 320 g/ha) | A (barnyard grass) weedkilling efficacy grade (barnyard grass [3]; treatment dosage 320 g/ha) | B (bulrush) weedkilling efficacy grade (bulrush [4]; treatment dosage 320 g/ha) | C (oval-leafed pondweed) weedkilling efficacy grade (oval-leafed pondweed [5]; treatment dosage 320 g/ha) | a: transplanted rice, effect on crop grade (transplanted rice; treatment dosage 320 g/ha) | C: oval-leafed pondweed, weed kill grade (oval-leafed pondweed [6]; treatment dosage 320 g/ha) | further results
Cc1cccc(N2COCN(C(C)(C)C(=O)Nc3cc(C(F)(F)F)ccn3)C2=O)c1 [A-6-07] | 5 (weed kill ratio 90% or more, (practically complete withering)) | 5 (weed kill ratio 90% or more, (practically complete withering)) | 4 (weed kill ratio 70% or more, less than 90%) | 5 (weed kill ratio 90% or more, (practically complete withering)) | 3 (weed kill ratio 40% or more, less than 70%) | 1 (weed kill ratio 5% or more, less than 20%) | 5 (weed kill ratio 90% or more, (practically complete withering)) | –
Cc1cccc(N2COCN(C(C)(C)C(=O)Nc3cc(Cl)cc(Cl)n3)C2=O)c1 [A-6-08] | 5 (weed kill ratio 90% or more, (practically complete withering)) | 5 (weed kill ratio 90% or more, (practically complete withering)) | 5 (weed kill ratio 90% or more, (practically complete withering)) | 5 (weed kill ratio 90% or more, (practically complete withering)) | 4 (weed kill ratio 70% or more, less than 90%) | 0 (weed kill ratio 5% or less (practically no effect)) | 5 (weed kill ratio 90% or more, (practically complete withering)) | –
Cc1ccc(N2COCN(C(C)(C)C(=O)Nc3cc(F)cc(F)n3)C2=O)cc1 [A-6-10] | 5 (weed kill ratio 90% or more, (practically complete withering)) | 5 (weed kill ratio 90% or more, (practically complete withering)) | 4 (weed kill ratio 70% or more, less than 90%) | 5 (weed kill ratio 90% or more, (practically complete withering)) | 5 (weed kill ratio 90% or more, (practically complete withering)) | 1 (weed kill ratio 5% or more, less than 20%) | 5 (weed kill ratio 90% or more, (practically complete withering)) | –
Cc1ccc(N2COCN(C(C)(C)C(=O)Nc3cc(Cl)cc(F)n3)C2=O)cc1 [A-6-11] | 5 (weed kill ratio 90% or more, (practically complete withering)) | 5 (weed kill ratio 90% or more, (practically complete withering)) | 4 (weed kill ratio 70% or more, less than 90%) | 5 (weed kill ratio 90% or more, (practically complete withering)) | 5 (weed kill ratio 90% or more, (practically complete withering)) | 0 (weed kill ratio 5% or less (practically no effect)) | 5 (weed kill ratio 90% or more, (practically complete withering)) | –
Cc1ccc(N2COCN(C(C)(C)C(=O)Nc3cc(Cl)cc(Cl)n3)C2=O)cc1 [A-6-12] | 5 (weed kill ratio 90% or more, (practically complete withering)) | 5 (weed kill ratio 90% or more, (practically complete withering)) | 4 (weed kill ratio 70% or more, less than 90%) | 5 (weed kill ratio 90% or more, (practically complete withering)) | 5 (weed kill ratio 90% or more, (practically complete withering)) | 2 (weed kill ratio 20% or more, less than 40%) | 5 (weed kill ratio 90% or more, (practically complete withering)) | –
O=C1N(c2ccccc2)COCN1C1(C(=O)Nc2cc(Cl)cc(Cl)n2)CC1 [A-7-04] | – | – | – | – | – | – | – | A: barnyard grass, weed kill grade (barnyard grass [1]; treatment dosage 1000 g/ha): 0 (weed kill ratio 5% or less (practically no effect)); B: bulrush, weed kill grade (bulrush [2]; treatment dosage 1000 g/ha): 5 (weed kill ratio 90% or more, (practically complete withering)); A (barnyard grass) weedkilling efficacy grade (barnyard grass [3]; treatment dosage 1000 g/ha): 0 (weed kill ratio 5% or less (practically no effect)); B (bulrush) weedkilling efficacy grade (bulrush [4]; treatment dosage 1000 g/ha): 1 (weed kill ratio 5% or more, less than 20%); C (oval-leafed pondweed) weedkilling efficacy grade (oval-leafed pondweed [5]; treatment dosage 1000 g/ha): 0 (weed kill ratio 5% or less (practically no effect)); a: transplanted rice, effect on crop grade (transplanted rice; treatment dosage 1000 g/ha): 0 (weed kill ratio 5% or less (practically no effect)); C: oval-leafed pondweed, weed kill grade (oval-leafed pondweed [6]; treatment dosage 1000 g/ha): 0 (weed kill ratio 5% or less (practically no effect))
CC1=C(c2ccccc2)C(=O)N(C(C)(C)C(=O)Nc2nnc(-c3ccccc3)s2)CO1 [B-1-11] | – | – | – | – | – | – | – | A (barnyard grass) weedkilling efficacy grade (barnyard grass [1]; treatment dosage 252 g/ha): 4 (weed kill ratio 70% or more, less than 90%); B (bulrush) weedkilling efficacy grade (bulrush [2]; treatment dosage 252 g/ha): 5 (weed kill ratio 90% or more, (practically complete withering)); A (barnyard grass) weedkilling efficacy grade (barnyard grass [3]; treatment dosage 252 g/ha): 1 (weed kill ratio 5% or more, less than 20%); B (bulrush) weedkilling efficacy grade (bulrush [4]; treatment dosage 252 g/ha): 4 (weed kill ratio 70% or more, less than 90%); C (oval-leafed pondweed) weedkilling efficacy grade (oval-leafed pondweed [5]; treatment dosage 252 g/ha): 3 (weed kill ratio 40% or more, less than 70%); a (transplanted rice) effect on crop grade (transplanted rice; treatment dosage 252 g/ha): 0 (weed kill ratio 5% or less (practically no effect)); C (oval-leafed pondweed) weedkilling efficacy grade (oval-leafed pondweed [6]; treatment dosage 252 g/ha): 5 (weed kill ratio 90% or more, (practically complete withering))
CC1=C(c2cccnc2F)C(=O)N(C(C)(C)C(=O)Nc2cccc(Br)n2)CO1 [B-2-10] | – | – | 5 (weed kill ratio 90% or more, (practically complete withering)) | 5 (weed kill ratio 90% or more, (practically complete withering)) | 5 (weed kill ratio 90% or more, (practically complete withering)) | – | – | A (barnyard grass) weedkilling efficacy grade (barnyard grass [1]; treatment dosage 320 g/ha): 5 (weed kill ratio 90% or more, (practically complete withering)); B (bulrush) weedkilling efficacy grade (bulrush [2]; treatment dosage 320 g/ha): 5 (weed kill ratio 90% or more, (practically complete withering)); a (transplanted rice) effect on crop grade (transplanted rice; treatment dosage 320 g/ha): 1 (weed kill ratio 5% or more, less than 20%); C (oval-leafed pondweed) weedkilling efficacy grade (oval-leafed pondweed [6]; treatment dosage 320 g/ha): 5 (weed kill ratio 90% or more, (practically complete withering))
CC1=C(c2cccnc2F)C(=O)N(C(C)(C)C(=O)Nc2cc(C(F)(F)F)ccn2)CO1 [B-2-17] | – | – | – | – | – | – | – | A (barnyard grass) weedkilling efficacy grade (barnyard grass [1]; treatment dosage 252 g/ha): 5 (weed kill ratio 90% or more, (practically complete withering)); B (bulrush) weedkilling efficacy grade (bulrush [2]; treatment dosage 252 g/ha): 5 (weed kill ratio 90% or more, (practically complete withering)); A (barnyard grass) weedkilling efficacy grade (barnyard grass [3]; treatment dosage 252 g/ha): 4 (weed kill ratio 70% or more, less than 90%); B (bulrush) weedkilling efficacy grade (bulrush [4]; treatment dosage 252 g/ha): 5 (weed kill ratio 90% or more, (practically complete withering)); C (oval-leafed pondweed) weedkilling efficacy grade (oval-leafed pondweed [5]; treatment dosage 252 g/ha): 3 (weed kill ratio 40% or more, less than 70%); a (transplanted rice) effect on crop grade (transplanted rice; treatment dosage 252 g/ha): 3 (weed kill ratio 40% or more, less than 70%); C (oval-leafed pondweed) weedkilling efficacy grade (oval-leafed pondweed [6]; treatment dosage 252 g/ha): 5 (weed kill ratio 90% or more, (practically complete withering))
CC1=C(c2ccccc2)C(=O)N(C(C)(C)C(=O)Nc2cc(Cl)cc(-c3ccccc3)n2)CO1 [B-2-45] | – | – | 4 (weed kill ratio 70% or more, less than 90%) | 2 (weed kill ratio 20% or more, less than 40%) | 4 (weed kill ratio 70% or more, less than 90%) | – | – | A (barnyard grass) weedkilling efficacy grade (barnyard grass [1]; treatment dosage 320 g/ha): 5 (weed kill ratio 90% or more, (practically complete withering)); B (bulrush) weedkilling efficacy grade (bulrush [2]; treatment dosage 320 g/ha): 5 (weed kill ratio 90% or more, (practically complete withering)); a (transplanted rice) effect on crop grade (transplanted rice; treatment dosage 320 g/ha): 2 (weed kill ratio 20% or more, less than 40%); C (oval-leafed pondweed) weedkilling efficacy grade (oval-leafed pondweed [6]; treatment dosage 320 g/ha): 4 (weed kill ratio 70% or more, less than 90%)
